Tested on: MV-4-11 cells
Assay: Gene expression microarray analysis (Affymetrix PrimeView) and GSEA
Format: cell-based, human
Design: RFU PODN (11730768_x_at) / Fold change /veh PODN (11730768_x_at) / RFU LINC00158 (11744669_a_at) / Fold change /veh LINC00158 (11744669_a_at) / RFU DUSP10 (11751237_a_at) / Fold change /veh DUSP10 (11751237_a_at) / RFU ID3 (11757404_x_at) / Fold change /veh ID3 (11757404_x_at) / RFU PLEKHG5 (11737974_s_at) / Fold change /veh PLEKHG5 (11737974_s_at) / RFU LRRC4B (11730491_at) / Fold change /veh LRRC4B (11730491_at) / RFU GIMAP4 (11747438_a_at) / Fold change /veh GIMAP4 (11747438_a_at) / RFU KRT8 (11758183_x_at) / Fold change /veh KRT8 (11758183_x_at) / RFU CNN1 (11734310_a_at) / Fold change /veh CNN1 (11734310_a_at) / RFU VPS37D (11726825_at) / Fold change /veh VPS37D (11726825_at) / RFU C10orf10 (11716522_x_at) / Fold change /veh C10orf10 (11716522_x_at) / RFU KIR2DL2 /// KIR2DL4 /// KIR2DL5A /// KIR2DL5B /// KIR2DS1 /// KIR2DS2 /// KIR2DS3 /// KIR2DS4 /// KIR3DL3 /// KIR3DL3 /// KIR3DS1 (11738374_at) / Fold change /veh KIR2DL2 /// KIR2DL4 /// KIR2DL5A /// KIR2DL5B /// KIR2DS1 /// KIR2DS2 /// KIR2DS3 /// KIR2DS4 /// KIR3DL3 /// KIR3DL3 /// KIR3DS1 (11738374_at) / RFU C1QL1 (11718748_at) / Fold change /veh C1QL1 (11718748_at) / RFU TMPRSS4 (11747572_a_at) / Fold change /veh TMPRSS4 (11747572_a_at) / RFU HAMP (11756126_x_at) / Fold change /veh HAMP (11756126_x_at) / RFU RNFT2 (11725882_a_at) / Fold change /veh RNFT2 (11725882_a_at) / RFU NR4A2 (11747474_a_at) / Fold change /veh NR4A2 (11747474_a_at) / RFU ABCC12 (11746883_a_at) / Fold change /veh ABCC12 (11746883_a_at) / RFU TMEM136 (11760407_x_at) / Fold change /veh TMEM136 (11760407_x_at) / RFU CLDN22 /// WWC2 (11732394_at) / Fold change /veh CLDN22 /// WWC2 (11732394_at) / RFU HLA-DPB1 (11760878_x_at) / Fold change /veh HLA-DPB1 (11760878_x_at) / RFU SPINT1 (11716480_a_at) / Fold change /veh SPINT1 (11716480_a_at) / RFU GAP43 (11754022_s_at) / Fold change /veh GAP43 (11754022_s_at) / RFU A4GNT (11735810_at) / Fold change /veh A4GNT (11735810_at) / RFU PRB3 (11715151_x_at) / Fold change /veh PRB3 (11715151_x_at) / RFU TUBB4B (11761932_at) / Fold change /veh TUBB4B (11761932_at) / RFU CAPN14 (11732068_a_at) / Fold change /veh CAPN14 (11732068_a_at) / RFU TMCC2 (11721928_a_at) / Fold change /veh TMCC2 (11721928_a_at) / RFU IRGQ (11745062_a_at) / Fold change /veh IRGQ (11745062_a_at) / RFU FAM174B (11720279_a_at) / Fold change /veh FAM174B (11720279_a_at) / RFU TMPRSS4 (11748680_a_at) / Fold change /veh TMPRSS4 (11748680_a_at) / RFU FAM212B (11763350_a_at) / Fold change /veh FAM212B (11763350_a_at) / RFU PLEKHG5 (11743358_a_at) / Fold change /veh PLEKHG5 (11743358_a_at) / RFU ZSCAN30 (11745921_a_at) / Fold change /veh ZSCAN30 (11745921_a_at) / RFU CMKLR1 (11741424_a_at) / Fold change /veh CMKLR1 (11741424_a_at) / RFU LOC101060620 /// MAPK8IP1 (11723275_at) / Fold change /veh LOC101060620 /// MAPK8IP1 (11723275_at) / RFU SPTSSB (11747773_x_at) / Fold change /veh SPTSSB (11747773_x_at) / RFU PRSS12 (11739890_at) / Fold change /veh PRSS12 (11739890_at) / RFU BIN1 (11741810_x_at) / Fold change /veh BIN1 (11741810_x_at) / RFU WNT11 (11732464_a_at) / Fold change /veh WNT11 (11732464_a_at) / RFU C10orf10 (11716521_a_at) / Fold change /veh C10orf10 (11716521_a_at) / RFU C5orf56 (11738089_at) / Fold change /veh C5orf56 (11738089_at) / RFU CYB561 (11721691_x_at) / Fold change /veh CYB561 (11721691_x_at) / RFU ANKRD19P (11752326_a_at) / Fold change /veh ANKRD19P (11752326_a_at) / RFU OR2T12 /// OR2T33 /// OR2T8 (11738714_s_at) / Fold change /veh OR2T12 /// OR2T33 /// OR2T8 (11738714_s_at) / RFU VCAN (11748164_a_at) / Fold change /veh VCAN (11748164_a_at) / RFU JSRP1 (11732532_at) / Fold change /veh JSRP1 (11732532_at) / RFU KRTAP10-11 (11738290_x_at) / Fold change /veh KRTAP10-11 (11738290_x_at) / RFU MYO3A (11730013_a_at) / Fold change /veh MYO3A (11730013_a_at) / RFU EBF3 (11725865_a_at) / Fold change /veh EBF3 (11725865_a_at) / RFU CAMK2N1 (11719241_x_at) / Fold change /veh CAMK2N1 (11719241_x_at) / RFU C5orf56 (11738088_a_at) / Fold change /veh C5orf56 (11738088_a_at) / RFU OLFML3 (11715873_a_at) / Fold change /veh OLFML3 (11715873_a_at) / RFU LOC100653217 /// NTM (11731650_a_at) / Fold change /veh LOC100653217 /// NTM (11731650_a_at) / RFU MAPK11 (11762145_a_at) / Fold change /veh MAPK11 (11762145_a_at) / RFU FIZ1 (11724087_x_at) / Fold change /veh FIZ1 (11724087_x_at) / RFU OASL (11726364_x_at) / Fold change /veh OASL (11726364_x_at) / RFU SOX15 (11748057_x_at) / Fold change /veh SOX15 (11748057_x_at) / RFU CD79A (11719716_a_at) / Fold change /veh CD79A (11719716_a_at) / RFU HIST1H1D (11736915_at) / Fold change /veh HIST1H1D (11736915_at) / RFU CASKIN2 (11723855_a_at) / Fold change /veh CASKIN2 (11723855_a_at) / RFU LOC730098 (11760151_x_at) / Fold change /veh LOC730098 (11760151_x_at) / RFU OR4N2 (11742367_at) / Fold change /veh OR4N2 (11742367_at) / RFU PRRT2 (11749266_a_at) / Fold change /veh PRRT2 (11749266_a_at) / RFU SNX32 (11753110_a_at) / Fold change /veh SNX32 (11753110_a_at) / RFU CDHR5 (11726645_a_at) / Fold change /veh CDHR5 (11726645_a_at) / RFU RCAN1 (11760418_a_at) / Fold change /veh RCAN1 (11760418_a_at) / RFU FAM167A (11723789_a_at) / Fold change /veh FAM167A (11723789_a_at) / RFU FAM26E (11764081_at) / Fold change /veh FAM26E (11764081_at) / RFU ISYNA1 (11749810_s_at) / Fold change /veh ISYNA1 (11749810_s_at) / RFU ACY1 (11761880_at) / Fold change /veh ACY1 (11761880_at) / RFU 11764098_at / Fold change /veh 11764098_at / RFU SAMD14 (11745864_x_at) / Fold change /veh SAMD14 (11745864_x_at) / RFU NPB (11741838_a_at) / Fold change /veh NPB (11741838_a_at) / RFU TMPRSS6 (11731388_a_at) / Fold change /veh TMPRSS6 (11731388_a_at) / RFU KRTAP10-2 (11738614_at) / Fold change /veh KRTAP10-2 (11738614_at) / RFU ARHGAP8 /// PRR5-ARHGAP8 (11727945_x_at) / Fold change /veh ARHGAP8 /// PRR5-ARHGAP8 (11727945_x_at) / RFU KRTAP5-7 /// NADSYN1 (11734609_at) / Fold change /veh KRTAP5-7 /// NADSYN1 (11734609_at) / RFU RASL12 (11751679_a_at) / Fold change /veh RASL12 (11751679_a_at) / RFU CDKN2B (11736163_a_at) / Fold change /veh CDKN2B (11736163_a_at) / RFU PRF1 (11729649_at) / Fold change /veh PRF1 (11729649_at) / RFU, ZNF638 /// ZNF638-IT1 / Fold change vs veh, ZNF638 /// ZNF638-IT1 / RFU, PANK3 / Fold change vs veh, PANK3 / RFU, SH3YL1 / Fold change vs veh, SH3YL1 / RFU, ZEB2 / Fold change vs veh, ZEB2 / RFU, NRIP1 / Fold change vs veh, NRIP1 / RFU, PTTG1IP / Fold change vs veh, PTTG1IP / RFU, CAPN2 / Fold change vs veh, CAPN2 / RFU, MED14 / Fold change vs veh, MED14 / RFU, SNORA58 / Fold change vs veh, SNORA58 / RFU, C1orf63 / Fold change vs veh, C1orf63 / RFU, LRRFIP1 / Fold change vs veh, LRRFIP1 / RFU, NDUFAF7 / Fold change vs veh, NDUFAF7 / RFU, SLC12A2 / Fold change vs veh, SLC12A2 / RFU, IBTK / Fold change vs veh, IBTK / RFU, ESF1 / Fold change vs veh, ESF1 / Fold change vs veh, TMEM50B / RFU, TAOK1 / Fold change vs veh, TAOK1 / RFU, ACBD3 / Fold change vs veh, ACBD3 / RFU, TMA16 / Fold change vs veh, TMA16 / RFU, RWDD3 / Fold change vs veh, RWDD3 / RFU, BCAT1 / Fold change vs veh, BCAT1 / RFU, EDEM3 / Fold change vs veh, EDEM3 / RFU, TMEM33 / Fold change vs veh, TMEM33 / RFU, WDR75 / Fold change vs veh, WDR75 / RFU, AHCTF1 / Fold change vs veh, AHCTF1 / RFU, TFRC / Fold change vs veh, TFRC / RFU, ZDHHC17 / Fold change vs veh, ZDHHC17 / RFU, NOM1 / Fold change vs veh, NOM1 / RFU, ARL8B / Fold change vs veh, ARL8B / RFU, ZBTB11 / Fold change vs veh, ZBTB11 / RFU, TAMM41 / Fold change vs veh, TAMM41 / RFU, KIAA1704 /// LOC100996395 / Fold change vs veh, KIAA1704 /// LOC100996395 / RFU, ING1 / Fold change vs veh, ING1 / RFU, TRMT61B / Fold change vs veh, TRMT61B / RFU, FUBP3 / Fold change vs veh, FUBP3 / RFU, TP53 / Fold change vs veh, TP53 / RFU, TNKS2 / Fold change vs veh, TNKS2 / RFU, ZFP14 / Fold change vs veh, ZFP14 / RFU, ACTR2 / Fold change vs veh, ACTR2 / RFU, PPP3R1 / Fold change vs veh, PPP3R1 / RFU, PIK3R1 / Fold change vs veh, PIK3R1 / RFU, HNRNPA1 / Fold change vs veh, HNRNPA1 / RFU, RNF170 / Fold change vs veh, RNF170 / RFU, ZNF28 / Fold change vs veh, ZNF28 / RFU, RNGTT / Fold change vs veh, RNGTT / RFU, OGT / Fold change vs veh, OGT / RFU, BRD1 / Fold change vs veh, BRD1 / RFU, MARS / Fold change vs veh, MARS / RFU, ZNF655 / Fold change vs veh, ZNF655 / RFU, FAHD1 / Fold change vs veh, FAHD1 / RFU, BDP1 / Fold change vs veh, BDP1 / RFU, LRRCC1 / Fold change vs veh, LRRCC1 / RFU, ARID1A / Fold change vs veh, ARID1A / RFU, ZNF146 / Fold change vs veh, ZNF146 / RFU, ZNF330 / Fold change vs veh, ZNF330 / RFU, GPN3 / Fold change vs veh, GPN3 / RFU, C9orf123 / Fold change vs veh, C9orf123 / RFU, N4BP2L2 / Fold change vs veh, N4BP2L2 / RFU, ARFIP1 / Fold change vs veh, ARFIP1 / RFU, FAM179B / Fold change vs veh, FAM179B / RFU, BCL10 / Fold change vs veh, BCL10 / RFU, UHRF1BP1L / Fold change vs veh, UHRF1BP1L / RFU, BET1 / Fold change vs veh, BET1 / RFU, CNOT2 / Fold change vs veh, CNOT2 / RFU, ZNF268 / Fold change vs veh, ZNF268 / Fold change vs veh, ZNF507 / RFU, DGCR2 / Fold change vs veh, DGCR2 / RFU, WDSUB1 / Fold change vs veh, WDSUB1 / Fold change vs veh, HSP90B1 /// MIR3652 / RFU, ADSS / Fold change vs veh, ADSS / RFU, GK / Fold change vs veh, GK / RFU, ZNF148 / Fold change vs veh, ZNF148 / RFU, TAF9 / Fold change vs veh, TAF9 / RFU, SLC1A5 / Fold change vs veh, SLC1A5 / RFU, SLMO2 / Fold change vs veh, SLMO2 / RFU, ABCC4 / Fold change vs veh, ABCC4 / RFU, LOC101060439 /// RAP1B / Fold change vs veh, LOC101060439 /// RAP1B / RFU, RFX7 / Fold change vs veh, RFX7 / RFU, GTPBP10 / Fold change vs veh, GTPBP10 / RFU, CNEP1R1 / Fold change vs veh, CNEP1R1 / RFU, BIVM-ERCC5 /// ERCC5 / Fold change vs veh, BIVM-ERCC5 /// ERCC5 / RFU, ILF3 / Fold change vs veh, ILF3 / RFU 11762660_at / Fold change /veh 11762660_at / RFU VCAN (11757783_s_at) / Fold change /veh VCAN (11757783_s_at) / RFU DDX43 (11728927_at) / Fold change /veh DDX43 (11728927_at) / RFU KRT8 (11758188_x_at) / Fold change /veh KRT8 (11758188_x_at) / RFU NKD1 (11759106_at) / Fold change /veh NKD1 (11759106_at) / RFU SRD5A1 (11742802_a_at) / Fold change /veh SRD5A1 (11742802_a_at) / RFU TPSAB1 /// TPSB2 (11721975_s_at) / Fold change /veh TPSAB1 /// TPSB2 (11721975_s_at) / RFU GSTM3 (11746129_a_at) / Fold change /veh GSTM3 (11746129_a_at) / RFU IL23R (11737362_x_at) / Fold change /veh IL23R (11737362_x_at) / RFU TMEM51 (11727254_a_at) / Fold change /veh TMEM51 (11727254_a_at) / RFU PIWIL2 (11732686_x_at) / Fold change /veh PIWIL2 (11732686_x_at) / RFU ORM1 (11744905_x_at) / Fold change /veh ORM1 (11744905_x_at) / RFU CCDC152 (11743942_at) / Fold change /veh CCDC152 (11743942_at) / RFU ECM1 (11717891_a_at) / Fold change /veh ECM1 (11717891_a_at) / RFU IL23R (11748794_a_at) / Fold change /veh IL23R (11748794_a_at) / RFU TNFAIP8L3 (11732012_x_at) / Fold change /veh TNFAIP8L3 (11732012_x_at) / RFU MBOAT4 (11741988_at) / Fold change /veh MBOAT4 (11741988_at) / RFU 11764193_at / Fold change /veh 11764193_at / RFU TMEM53 (11763286_at) / Fold change /veh TMEM53 (11763286_at) / RFU MAGEB2 (11727129_at) / Fold change /veh MAGEB2 (11727129_at) / RFU TMEM200A (11744735_a_at) / Fold change /veh TMEM200A (11744735_a_at) / RFU CCDC152 (11751479_a_at) / Fold change /veh CCDC152 (11751479_a_at) / RFU FAM211A (11726209_a_at) / Fold change /veh FAM211A (11726209_a_at) / RFU RGS16 (11746705_a_at) / Fold change /veh RGS16 (11746705_a_at) / RFU VCAN (11755009_s_at) / Fold change /veh VCAN (11755009_s_at) / RFU RHOB (11743442_s_at) / Fold change /veh RHOB (11743442_s_at) / RFU RGS16 (11720943_a_at) / Fold change /veh RGS16 (11720943_a_at) / RFU RGS16 (11720944_at) / Fold change /veh RGS16 (11720944_at) / RFU, VPS4B / Fold change vs veh, VPS4B / RFU, CREB1 / Fold change vs veh, CREB1 / RFU, DNAJC13 / Fold change vs veh, DNAJC13 / RFU, GNAQ / Fold change vs veh, GNAQ / RFU, CDK5R1 / Fold change vs veh, CDK5R1 / RFU, ZRANB3 / Fold change vs veh, ZRANB3 / RFU, CUL4A / Fold change vs veh, CUL4A / RFU, CCNY / Fold change vs veh, CCNY / RFU, UFL1 / Fold change vs veh, UFL1 / RFU, COG3 / Fold change vs veh, COG3 / RFU, DIAPH2 / Fold change vs veh, DIAPH2 / RFU, SKA2 / Fold change vs veh, SKA2 / RFU, AFF3 / Fold change vs veh, AFF3 / RFU, LMF1 / Fold change vs veh, LMF1 / RFU, IPO11 / Fold change vs veh, IPO11 / RFU, DFFB / Fold change vs veh, DFFB / RFU, FOXP1 / Fold change vs veh, FOXP1 / RFU, CARD8 / Fold change vs veh, CARD8 / RFU, STRN3 / Fold change vs veh, STRN3 / RFU, ADK / Fold change vs veh, ADK / RFU, RASSF2 / Fold change vs veh, RASSF2 / RFU, WIPF1 / Fold change vs veh, WIPF1 / RFU, LARP1B / Fold change vs veh, LARP1B / RFU, RASA1 / Fold change vs veh, RASA1 / RFU, RB1 / Fold change vs veh, RB1 / RFU, PPFIA1 / Fold change vs veh, PPFIA1 / RFU, MAT2A / Fold change vs veh, MAT2A / RFU, CCT5 / Fold change vs veh, CCT5 / RFU, WDR92 / Fold change vs veh, WDR92 / RFU, CUX1 / Fold change vs veh, CUX1 / RFU, TTC7A / Fold change vs veh, TTC7A / RFU, TMEM135 / Fold change vs veh, TMEM135 / RFU, DEPTOR / Fold change vs veh, DEPTOR / RFU, CPM / Fold change vs veh, CPM / RFU, DNAJB6 / Fold change vs veh, DNAJB6 / RFU, CACNA2D3 / Fold change vs veh, CACNA2D3 / RFU, DTX4 / Fold change vs veh, DTX4 / RFU, TFCP2 / Fold change vs veh, TFCP2 / RFU, GMCL1 /// GMCL1P1 / Fold change vs veh, GMCL1 /// GMCL1P1 / RFU, AEBP2 / Fold change vs veh, AEBP2 / RFU, SNHG1 /// SNORD22 /// SNORD25 /// SNORD26 /// SNORD27 /// SNORD28 /// SNORD29 /// SNORD31 / Fold change vs veh, SNHG1 /// SNORD22 /// SNORD25 /// SNORD26 /// SNORD27 /// SNORD28 /// SNORD29 /// SNORD31 / Fold change (Aza/veh), C12orf56 (ProbeSet 11735607_a_at) / Fold change (ACY-1035/veh), C12orf56 (ProbeSet 11735607_a_at) / Fold change (Aza/veh), FGFR1OP (ProbeSet 11751329_s_at) / Fold change (ACY-1035/veh), FGFR1OP (ProbeSet 11751329_s_at) / Fold change (Aza/veh), VPS36 (ProbeSet 11739960_a_at) / Fold change (ACY-1035/veh), VPS36 (ProbeSet 11739960_a_at) / RFU SYPL1 (11715823_x_at) / Fold change /veh SYPL1 (11715823_x_at) / RFU IGFBP7 (11715501_s_at) / Fold change /veh IGFBP7 (11715501_s_at) / RFU REEP3 (11722064_at) / Fold change /veh REEP3 (11722064_at) / RFU IGLL1 (11728026_x_at) / Fold change /veh IGLL1 (11728026_x_at): dose or concentration left out as unconfirmed
Details: ProbeSet 11753623_s_at; LIST D

Compound: Nc1ncn([C@@H]2O[C@H](CO)[C@@H](O)[C@H]2O)c(=O)n1 [azacitidine]
- RFU, LOC101060439 /// RAP1B: 283.36 RFU

— publication PMC5218480 (PLoS ONE, 2017)
